Test results from patent US6770287B1, “Biocidal cellulosic material” (The Regents of the University of California, priority 2000, dated 2004).

Tested on: E. coli
Experiment: AATCC Test Method 100 quantitative antibacterial test (bacterial reduction)
Format: cell-based, Escherichia coli (ATCC 2666)
Conditions: contact time 60 min
Source text: AATCC Test Method 100 was adopted in this study. According to this test method, four pieces of staked circular fabric swatches 4.8±0.1 (about one grams) were inoculated with 1.0±0.1 milliliter of inoculum in a 250 milliliter jar. The inoculum was a nutrient broth culture containing over 1.0×10^6 clone forming units (CFU) of organisms. After the swatches were inoculated, they were neutralized by 100 milliliter of a 0.02% sodium thiosulfate solution in the jar. The contact time was the time between inoculation and neutralization. The jar was vigorously shaken and the neutralized solution was diluted in serial. The dilutions, usually 100, 101, and 102, were plated on nutrient agar and incubated for 18-24 hours at 37° C. The number of bacteria recovered from the inoculated finished fabrics was counted and compared with that from untreated fabrics. Six log reduction means the total inactivation of bacteria, and one log reduction means that finished fabrics reduced bacteria counts from 106 CFU to 105 CFU.
Finished fabrics prepared from solutions containing 1%-6% of monomethylol-5,5-dimethylhydantoin following the protocol set forth in Example 1 with pickup rates below 1% have been tested.
Fabrics finished in accordance with the protocol set forth in Example II with Anti-2, i.e., 1,3-dimethylol-5,5-dimethylhydantoin, were also tested with AATCC test method 100, which was briefly described in Example IV. In the tests, a diluted CLOROX® solution containing 0.01 % active chlorine was used to chlorinate the finished fabrics.

CC1(C)C(=O)N(CO)C(=O)N1CO [Anti-2, 1,3-dimethylol-5,5-dimethylhydantoin]
6 log: Durable Antibacterial Properties After fifteen washes E. coli (Anti-2 2%, #400) | Durable Antibacterial Properties After five washes E. coli (Anti-2 2%, #400) | Durable Antibacterial Properties After ten washes E. coli (Anti-2 2%, #400) | Durable Antibacterial Properties After twenty washes E. coli (Anti-2 2%, #400) | Durable Antibacterial Properties After twenty washes E. coli (Anti-2 2%, #400, last column pair) | Durable Antibacterial Properties After fifteen washes E. coli (Anti-2 2%, #7409) | Durable Antibacterial Properties After five washes E. coli (Anti-2 2%, #7409) | Durable Antibacterial Properties After ten washes E. coli (Anti-2 2%, #7409) | Durable Antibacterial Properties After twenty washes E. coli (Anti-2 2%, #7409) | Durable Antibacterial Properties After twenty washes E. coli (Anti-2 2%, #7409, last column pair) | Durable Antibacterial Properties After fifteen washes E. coli (Anti-2 6%, #400) | Durable Antibacterial Properties After five washes E. coli (Anti-2 6%, #400) | Durable Antibacterial Properties After ten washes E. coli (Anti-2 6%, #400) | Durable Antibacterial Properties After twenty washes E. coli (Anti-2 6%, #400) | Durable Antibacterial Properties After twenty washes E. coli (Anti-2 6%, #400, last column pair) | Durable Antibacterial Properties After fifteen washes E. coli (Anti-2 6%, #7409) | Durable Antibacterial Properties After five washes E. coli (Anti-2 6%, #7409) | Durable Antibacterial Properties After ten washes E. coli (Anti-2 6%, #7409) | Durable Antibacterial Properties After twenty washes E. coli (Anti-2 6%, #7409) | Durable Antibacterial Properties After twenty washes E. coli (Anti-2 6%, #7409, last column pair) | Durable Antibacterial Properties After fifteen washes E. coli (Anti-2 10%, #400) | Durable Antibacterial Properties After five washes E. coli (Anti-2 10%, #400) | Durable Antibacterial Properties After ten washes E. coli (Anti-2 10%, #400) | Durable Antibacterial Properties After twenty washes E. coli (Anti-2 10%, #400) | Durable Antibacterial Properties After twenty washes E. coli (Anti-2 10%, #400, last column pair) | Durable Antibacterial Properties After fifteen washes E. coli (Anti-2 10%, #7409) | Durable Antibacterial Properties After five washes E. coli (Anti-2 10%, #7409) | Durable Antibacterial Properties After ten washes E. coli (Anti-2 10%, #7409) | Durable Antibacterial Properties After twenty washes E. coli (Anti-2 10%, #7409) | Durable Antibacterial Properties After twenty washes E. coli (Anti-2 10%, #7409, last column pair)
